The compounds below were run against c-Met kinase (h-Met; histidine-tagged c-Met catalytic domain fusion protein) (Homo sapiens (Human), UniProt P08581) (assay: In Vitro c-Met Kinase Enzyme Assays). Conditions: phosphorylation of poly Glu-Tyr, 5 μM ATP, 25 minutes at 30° C.
Assay type: biochemical
In short: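 His-tagged c-Met catalytic domain reacted 25 min at 30° C, within the linear initial-rate range. Phosphotyrosine detected by ELISA with peroxidase-labeled anti-phospho-tyrosine antibody and TMB, OD read at 450 nm (540 nm correction); IC50 from curve fit.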

c-Met kinase (h-Met; histidine-tagged c-Met catalytic domain fusion protein), sequence (P08581 1078-1345): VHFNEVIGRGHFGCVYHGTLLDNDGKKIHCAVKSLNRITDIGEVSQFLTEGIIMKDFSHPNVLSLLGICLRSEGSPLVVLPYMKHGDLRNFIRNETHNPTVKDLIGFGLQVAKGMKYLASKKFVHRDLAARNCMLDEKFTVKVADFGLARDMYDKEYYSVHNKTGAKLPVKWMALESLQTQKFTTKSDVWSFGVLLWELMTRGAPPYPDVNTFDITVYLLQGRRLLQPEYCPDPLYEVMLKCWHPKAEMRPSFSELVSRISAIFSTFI

IC50 | SMILES
< 500 nM | COCC1(NC(=O)c2ccc(-c3cnc4ncc(Cc5ccc6ncccc6c5)n4n3)cc2F)CC1 [Example 124, 2-Fluoro-N-[1-(methoxymethyl)cyclopropyl]-4-[7-(quinolin-6-ylmethyl)imidazo[1,2-b][1,2,4]triazin-2-yl]benzamide]
< 500 nM | O=C(NC1CCOCC1)c1ccc(-c2cnc3ncc(Cc4ccc5ncccc5c4)n3n2)cc1F [Example 125, 2-Fluoro-4-[7-(quinolin-6-ylmethyl)imidazo[1,2-b][1,2,4]triazin-2-yl]-N-(tetrahydro-2H-pyran-4-yl)benzamide]
< 500 nM | O=C(c1ccc(-c2cnc3ncc(Cc4ccc5ncccc5c4)n3n2)cc1F)N1CC[C@@H](O)C1 [Example 126, (3R)-1-{2-Fluoro-4-[7-(quinolin-6-ylmethyl)imidazo[1,2-b][1,2,4]triazin-2-yl]benzoyl}pyrrolidin-3-ol]
< 500 nM | NC(=O)c1ccc(-c2cnc3ncc(Cc4ccc5ncccc5c4)n3n2)cc1F [Example 127, 2-Fluoro-4-[7-(quinolin-6-ylmethyl)imidazo[1,2-b][1,2,4]triazin-2-yl]benzamide]
< 500 nM | O=C(N[C@H]1CC[C@H](O)CC1)c1ccc(-c2cnc3ncc(Cc4ccc5ncccc5c4)n3n2)cc1F [Example 128, 2-Fluoro-N-(trans-4-hydroxycyclohexyl)-4-[7-(quinolin-6-ylmethyl)imidazo[1,2-b][1,2,4]triazin-2-yl]benzamide]
< 500 nM | Fc1cc(-c2cnc3ncc(Cc4ccc5ncccc5c4)n3n2)ccc1-n1ccnc1 [Example 129, 6-{2-[3-Fluoro-4-(1H-imidazol-1-yl)phenyl]imidazo[1,2-b][1,2,4]triazin-7-ylmethyl}quinoline]
< 500 nM | O=C1OCCN1c1ccc(-c2cnc3ncc(Cc4ccc5ncccc5c4)n3n2)cc1F [Example 130, 3-{2-Fluoro-4-[7-(quinolin-6-ylmethyl)imidazo[1,2-b][1,2,4]triazin-2-yl]phenyl}-1,3-oxazolidin-2-one]
< 500 nM | CNC(=O)[C@@H](NC(=O)c1ccc(-c2cnc3ncc(Cc4ccc5ncccc5c4)n3n2)cc1F)C(C)(C)C [Example 131, N-(1S)-2,2-Dimethyl-1-[(methylamino)carbonyl]propyl-2-fluoro-4-[7-(quinolin-6-ylmethyl)imidazo[1,2-b][1,2,4]triazin-2-yl]benzamide]
< 500 nM | CN(C)C(=O)[C@@H](NC(=O)c1ccc(-c2cnc3ncc(Cc4ccc5ncccc5c4)n3n2)cc1F)C(C)(C)C [Example 132, N-(1S)-1-[(Dimethylamino)carbonyl]-2,2-dimethylpropyl-2-fluoro-4-[7-(quinolin-6-ylmethyl)imidazo[1,2-b][1,2,4]triazin-2-yl]benzamide]
< 500 nM | CC(C)(C)[C@H](NC(=O)c1ccc(-c2cnc3ncc(Cc4ccc5ncccc5c4)n3n2)cc1F)C(=O)N1CCC1 [Example 133, N-[(1S)-1-(Azetidin-1-ylcarbonyl)-2,2-dimethylpropyl]-2-fluoro-4-[7-(quinolin-6-ylmethyl)imidazo[1,2-b][1,2,4]triazin-2-yl]benzamide]
< 500 nM | CC(C)C[C@H](NC(=O)c1ccc(-c2cnc3ncc(Cc4ccc5ncccc5c4)n3n2)cc1F)C(=O)N(C)C [Example 134, N-{(1S)-1-[(Dimethylamino)carbonyl]-3-methylbutyl}-2-fluoro-4-[7-(quinolin-6-ylmethyl)imidazo[1,2-b][1,2,4]triazin-2-yl]benzamide]
< 500 nM | CNC(=O)[C@@H](CC(C)C)NC(=O)c1ccc(-c2cnc3ncc(Cc4ccc5ncccc5c4)n3n2)cc1F [Example 135, 2-Fluoro-N-{(1R)-3-methyl-1-[(methylamino)carbonyl]butyl}-4-[7-(quinolin-6-ylmethyl)imidazo[1,2-b][1,2,4]triazin-2-yl]benzamide]
< 500 nM | CC(C)C[C@@H](NC(=O)c1ccc(-c2cnc3ncc(Cc4ccc5ncccc5c4)n3n2)cc1F)C(=O)N(C)C [Example 136, N-{(1R)-1-[(Dimethylamino)carbonyl]-3-methylbutyl}-2-fluoro-4-[7-(quinolin-6-ylmethyl)imidazo[1,2-b][1,2,4]triazin-2-yl]benzamide]
< 500 nM | CC(C)C[C@@H](NC(=O)c1ccc(-c2cnc3ncc(Cc4ccc5ncccc5c4)n3n2)cc1F)C(=O)N1CCC1 [Example 137, N-[(1R)-1-(Azetidin-1-ylcarbonyl)-3-methylbutyl]-2-fluoro-4-[7-(quinolin-6-ylmethyl)imidazo[1,2-b][1,2,4]triazin-2-yl]benzamide]
< 500 nM | N#CCCn1cc(-c2cnc3ncc(Cc4ccc5ncccc5c4)n3n2)cn1 [Example 138, 3-{4-[7-(Quinolin-6-ylmethyl)imidazo[1,2-b][1,2,4]triazin-2-yl]-1H-pyrazol-1-yl}propanenitrile]
< 500 nM | N#CCn1cc(-c2cnc3ncc(Cc4ccc5ncccc5c4)n3n2)cn1 [Example 139, 4-[7-(Quinolin-6-ylmethyl)imidazo[1,2-b][1,2,4]triazin-2-yl]-1H-pyrazol-1-ylacetonitrile]
< 500 nM | NC(=O)Cn1cc(-c2cnc3ncc(Cc4ccc5ncccc5c4)n3n2)cn1 [Example 140, 2-{4-[7-(Quinolin-6-ylmethyl)imidazo[1,2-b][1,2,4]triazin-2-yl]-1H-pyrazol-1-yl}acetamide]

IC50 | SMILES
< 500 nM | COC(=O)N1CCC(n2cc(-c3cnc4ncc(Cc5ccc6ncccc6c5)n4n3)cn2)CC1 [Example 141, Methyl 4-{4-[7-(quinolin-6-ylmethyl)imidazo[1,2-b][1,2,4]triazin-2-yl]-1H-pyrazol-1-yl}piperidine-1-carboxylate]
< 500 nM | O=C(N[C@H]1CCC[C@@H]1O)c1ccc(-c2cnc3ncc(Cc4ccc5ncccc5c4)n3n2)cc1F [Example 142, 2-Fluoro-N-[(1S,2S)-2-hydroxycyclopentyl]-4-[7-(quinolin-6-ylmethyl)imidazo[1,2-b][1,2,4]triazin-2-yl]benzamide]
< 500 nM | O=C(NCCO)c1ccc(-c2cnc3ncc(Cc4ccc5ncccc5c4)n3n2)cc1F [Example 143, 2-Fluoro-N-(2-hydroxyethyl)-4-[7-(quinolin-6-ylmethyl)imidazo[1,2-b][1,2,4]triazin-2-yl]benzamide]
< 500 nM | COCC1(NC(=O)c2ccc(-c3cnc4ncc(Cc5ccc6ncccc6c5)n4n3)cc2F)CCC1 [Example 144, 2-Fluoro-N-[1-(methoxymethyl)cyclobutyl]-4-[7-(quinolin-6-ylmethyl)imidazo[1,2-b][1,2,4]triazin-2-yl]benzamide]
< 500 nM | COCC1(NC(=O)c2ccc(-c3cnc4ncc(Cc5ccc6ncccc6c5)n4n3)cc2F)CCOCC1 [Example 145, 2-Fluoro-N-[4-(methoxymethyl)tetrahydro-2H-pyran-4-yl]-4-[7-(quinolin-6-ylmethyl)imidazo[1,2-b][1,2,4]triazin-2-yl]benzamide]
< 500 nM | O=C(NCC1CC1)c1ccc(-c2cnc3ncc(Cc4ccc5ncccc5c4)n3n2)cc1F [Example 146, N-(Cyclopropylmethyl)-2-fluoro-4-[7-(quinolin-6-ylmethyl)imidazo[1,2-b][1,2,4]triazin-2-yl]benzamide]
< 500 nM | O=C(NCC1CCOCC1)c1ccc(-c2cnc3ncc(Cc4ccc5ncccc5c4)n3n2)cc1F [Example 147, 2-Fluoro-4-[7-(quinolin-6-ylmethyl)imidazo[1,2-b][1,2,4]triazin-2-yl]-N-(tetrahydro-2H-pyran-4-ylmethyl)benzamide]
< 500 nM | CN(C)CCNC(=O)c1ccc(-c2cnc3ncc(Cc4ccc5ncccc5c4)n3n2)cc1F [Example 148, N-[2-(Dimethylamino)ethyl]-2-fluoro-4-[7-(quinolin-6-ylmethyl)imidazo[1,2-b][1,2,4]triazin-2-yl]benzamide]
< 500 nM | O=C(NCCN1CCCCC1)c1ccc(-c2cnc3ncc(Cc4ccc5ncccc5c4)n3n2)cc1F [Example 149, 2-Fluoro-N-(2-piperidin-1-ylethyl)-4-[7-(quinolin-6-ylmethyl)imidazo[1,2-b][1,2,4]triazin-2-yl]benzamide]
< 500 nM | CN1CCCC1CCNC(=O)c1ccc(-c2cnc3ncc(Cc4ccc5ncccc5c4)n3n2)cc1F (stereo not drawn) [Example 150, 2-Fluoro-N-[2-(1-methylpyrrolidin-2-yl)ethyl]-4-[7-(quinolin-6-ylmethyl)imidazo[1,2-b][1,2,4]triazin-2-yl]benzamide]
< 500 nM | O=C(NCc1ccccn1)c1ccc(-c2cnc3ncc(Cc4ccc5ncccc5c4)n3n2)cc1F [Example 151, 2-Fluoro-N-(pyridin-2-ylmethyl)-4-[7-(quinolin-6-ylmethyl)imidazo[1,2-b][1,2,4]triazin-2-yl]benzamide]
< 500 nM | O=C(NCc1cccnc1)c1ccc(-c2cnc3ncc(Cc4ccc5ncccc5c4)n3n2)cc1F [Example 152, 2-Fluoro-N-(pyridin-3-ylmethyl)-4-[7-(quinolin-6-ylmethyl)imidazo[1,2-b][1,2,4]triazin-2-yl]benzamide]
< 500 nM | O=C(NCc1ccncc1)c1ccc(-c2cnc3ncc(Cc4ccc5ncccc5c4)n3n2)cc1F [Example 153, 2-Fluoro-N-(pyridin-4-ylmethyl)-4-[7-(quinolin-6-ylmethyl)imidazo[1,2-b][1,2,4]triazin-2-yl]benzamide]
< 500 nM | O=C(NCCc1ccccn1)c1ccc(-c2cnc3ncc(Cc4ccc5ncccc5c4)n3n2)cc1F [Example 154, 2-Fluoro-N-(2-pyridin-2-ylethyl)-4-[7-(quinolin-6-ylmethyl)imidazo[1,2-b][1,2,4]triazin-2-yl]benzamide]
< 500 nM | CC(NC(=O)c1ccc(-c2cnc3ncc(Cc4ccc5ncccc5c4)n3n2)cc1F)c1cccnc1 (stereo not drawn) [Example 155, 2-Fluoro-N-(1-pyridin-3-ylethyl)-4-[7-(quinolin-6-ylmethyl)imidazo[1,2-b][1,2,4]triazin-2-yl]benzamide]
< 500 nM | CC(NC(=O)c1ccc(-c2cnc3ncc(Cc4ccc5ncccc5c4)n3n2)cc1F)c1ccncc1 (stereo not drawn) [Example 156, 2-Fluoro-N-(1-pyridin-4-ylethyl)-4-[7-(quinolin-6-ylmethyl)imidazo[1,2-b][1,2,4]triazin-2-yl]benzamide]
